Reference: patent publication US20230085803A1, “METHOD FOR SEARCHING AND SCREENING FOR TARGET OF ANTI-CANCER AGENT USING NON-HUMAN ANIMAL MODEL HAVING NOG ESTABLISHED CANCER CELL LINE TRANSPLANTED THEREIN” (CHUGAI SEIYAKU KABUSHIKI KAISHA, priority 2009, published 2023)

Tests used:
[1] = system: moderately-differentiated adenocarcinoma (NOG-established colon cancer cell line); experiment: Histopathology of tumor masses after 5-FU administration, moderately-differentiated adenocarcinoma transplanted into NOG mice; format: in vivo, human; conditions: NOG mice transplanted with an NOG-established colon cancer cell line, after administration of 5-fluorouracil; legend does not name the line
Source text: (§1) The present inventors used NOG-established cancer cell lines that had been established so as to meet the criterion that human colon cancer, stomach cancer, lung cancer, breast cancer, or pancreatic cancer can be transplanted or passaged over three or more generations in NOG mice (Fujii E. et al., Pathol Int. 2008; 58: 559-567). In this Example, NOG-established cancer cell lines were subcutaneously transplanted into NOG mice. 28 days after transplantation, the mice were dissected, and the implants were excised and fixed with 4% paraformaldehyde at 4° C. for 16 to 24 hours. Then, the fixed samples were embedded and sliced into thin section samples by the AMeX method (Fujii E. et al., Pathol Int. 2008; 58: 559-567). The tissues were stained by HE and immunohistochemistry (IHC). Anti-E-cadherin antibody (DakoCytomation) and anti-fibronectin antibody (DakoCytomation) were used as a primary antibody. The visualization was carried out by LSAB method using DAB (DAB Map kit, Roche Diagnostics).
(§2) Each NOG-established cancer cell line whose tissue morphology was (1) well-differentiated adenocarcinoma, (2) moderately-differentiated adenocarcinoma, or (3) poorly-differentiated adenocarcinoma in the donors' human colon cancer were subcutaneously transplanted into NOG mice. […]

[2] = system: Well-differentiated adenocarcinoma (NOG-established colon cancer cell line); experiment: Histopathology of tumor masses after 5-FU administration, well-differentiated adenocarcinoma transplanted into NOG mice; format: in vivo, human; conditions: NOG mice transplanted with an NOG-established colon cancer cell line, after administration of 5-fluorouracil; legend does not name the line
Source text: as §1, §2

O=c1[nH]cc(F)c(=O)[nH]1 [5-FU, 5-fluorouracil]
budding structures (histopathology, FIG. 13) [1]: decrease
poorly-differentiated glandular ducts (histopathology, FIG. 13) [2]: increase
